Three molecules from patent publication US20080131420A1, “METHODS AND COMPOSITIONS FOR TREATING MUCOSAL INFLAMMATION” (Accentia, Inc., priority 2006, published 2008) can be followed below.

“Also recorded” adds a separate entry of the source.

Common to all, as to format: cell-based
For test [1], the system named is Alternaria alternata. As to the kind of experiment: Antifungal Efficacy, sample diluted and plated, plates read for mold growth (Example 1). Particulars: 100% sample; diluted and plated at 1, 4, 24 and 48 hours of incubation; plate read on days 2, 3 and 5. As to the method:
SINOFRESH Essential Nasal Cleansing Formula, which included cetylpyridinium chloride (CPC) at 0.02% and benzalkonium chloride (BKC) at 0.005%, was tested for its ability to inhibit Alternaria alternata, a fungus typically associated with non-invasive fungus-induced rhinosinusitis. Minimum Inhibitory Concentration (MIC), Antifungal Efficacy, and Selective Agar Streak were all determined, and met the pre-defined acceptance criteria that the negative control test tube had to remain free of growth throughout the study, while the positive control tube had to retain growth throughout the study. No deviations were noted during the study.
A 100% sample of 0.02% cetylpyridinium chloride was tested for antifungal efficacy. At 1, 4, 24, and 48 hours of incubation, the sample was diluted and plated. On days 2, 3, and 5, the plate was read.

The test system of test [2] is Alternaria alternata. Nature of the test: Cylinder Agar Plate Assay (Example 3). From the text: Cetyl pyridinium chloride (CPC) and benzalkonium chloride (BKC) were both independently tested to determine their efficacy of inhibiting Alternaria alternata, a fungus typically associated with non-invasive fungus-induced rhinosinusitis. An in vitro test of the efficacy of BKC and CPC in combination was also completed against Alternaria alternata.
Five concentrations of BKC and CPC were independently tested against Alternaria alternata in a cylinder Agar Plate Assay. The CPC concentrations were 0.005%, 0.01%, 0.05%, 0.25% and 1.0%, whereas the BKC concentrations were 0.00025%, 0.001%, 0.005%, 0.025%, and 0.1%. These concentrations were chosen to include the concentrations in the SINOFRESH product as well as two concentrations above and two concentrations below the SINOFRESH product.
Five concentrations of a combination of BKC and CPC were independently tested against Alternaria alternata in a cylinder Agar Plate Assay. The concentrations were as follows:
Five concentrations of the SINOFRESH product were also subjected to the same Agar Plate Assay, with the same concentrations of BKC and CPC.

Test [3] relates to Alternaria alternata. As to the kind of experiment: Inhibition of Alternaria alternata in RPMI-1640 broth tubes, visual growth rating 0-4 (Example 2). The note with it: spiked, 48 hours at 30-35°. As for the experimental part:
Amphotericin-B and Parabens (methylparaben and propylparaben) were tested for their ability to inhibit the fungus Alternaria alternata. Samples were stored at 2-8° C. prior to use.
Prepared an inoculating culture of Alternaria alternata by placing an ATCC pellet in 5 mL phosphate buffer, after dissolution spread the broth and dissolved pellet over the surface of a PDA plate using a FIG. 8 motion. The inoculum plate was incubated for five days at 20-25° C.
After the five day incubation period, 3 ml of modified phosphate buffer was used to wet the surface growth of the PDA plate. The surface of the culture was washed with the buffer using a sterile spreader stick. After washing, a 10 mL pipette was used to remove as much of the wash as is possible without picking up any agar. The wash was pipetted into a sterile culture tube.
Serial dilutions of the wash modified phosphate buffer were performed using modified phosphate buffer to determine the dilution that yields a mold population of 10^6 per mL. The dilutions were done by pipetting 1 mL of each dilution of the wash into molten potato dextrose agar plates pH 3.5 in quadruplicate, incubating at 20-25° C. for five days, assuring that there are not mixed cultures, and then counting the colonies on the plates. The correct dilution yielded counts of 30-300 CFU's. To maintain the correct dilution for inoculation, all dilutions were refrigerated at 2-8° C. until needed. […] A 0.1 mL aliquot of this dilution was used to inoculate the inhibition culture tubes.
Twelve sterile test tubes were prepared with 9 mL Modified Synthetic Medium RPMI-1640 broth that has been tempered in a 45-50° C. water bath and labeled as follows: Amphotericin B neg. control, Ampho-B 100 spike, Ampho-B 2 spike, Ampho-B 1 spike, Ampho-B 0.5 spike, Paraben neg. control, Paraben 400/100 spike, Paraben 300/75 spike, Paraben 200/50 spike, Paraben 100/25 spike, Pos. control, Neg control.
An Amphotericin-B suspension was prepared by placing in suspension 10 mg of Amphotericin-B in 10 mL in modified phosphate buffer. The sample was mixed by vortex for 30 seconds. […]
Control samples, Amphotericin B and Parabens dilutions were all prepared from the stock solutions. To all tube labeled “spike” and positive control, 0.1 mL of the inoculated buffer was added and determined to yield […]. […] The growth in each tube was recorded visually, on a 0-4 scale: 0: no growth observed, 1: slight growth or ˜25% of the growth control, 2: prominent growth or ˜50% of the growth control, 3: slight reduction in growth or ˜75% of the growth control, and 4: no reduction in growth or 100% of the growth control. […]

Consider `CCCCCCCCCCCCCCCC[n+]1ccccc1` [CPC, cetylpyridinium chloride], for which, in the test with Alternaria alternata [1], the “mold growth on plate” value is “did not exhibit any mold growth”. Besides, the “effect on the growth of Alternaria alternata” value in the test on Alternaria alternata [2] (CPC alone at 0.005%, 0.01%, 0.05%, 0.25% and 1.0%) is “most observable effect”.
On to benzalkonium chloride [BKC], for which the “effect on the growth of Alternaria alternata” value in the test on Alternaria alternata [2] (BKC alone at 0.005% (concentration in the SINOFRESH product)) is “little to no effect; also recorded: essentially inactive”; with Alternaria alternata [2] (BKC alone at concentrations of about 0.025% or above), “some effect”.
For the molecule `C[C@@H]1[C@H](O)[C@@H](C)/C=C/C=C/C=C/C=C/C=C/C=C/C=C/[C@H](O[C@@H]2O[C@H](C)[C@@H](O)[C@H](N)[C@@H]2O)C[C@@H]2O[C@](O)(C[C@@H](O)C[C@@H](O)[C@H](O)CC[C@@H](O)C[C@@H](O)CC(=O)O[C@H]1C)C[C@H](O)[C@H]2C(=O)O` [Amphotericin B], the “Rating (growth, 0-4 scale)” value with Alternaria alternata [3] (0.5 μg/mL) was 2 (prominent growth or ˜50% of the growth control); in the test on Alternaria alternata [3] (1.0 μg/mL), 2 (prominent growth or ˜50% of the growth control); in the test with Alternaria alternata [3] (2.0 μg/mL) it was 1 (slight growth or ˜25% of the growth control); with Alternaria alternata [3] (100 μg/mL), 1 (slight growth or ˜25% of the growth control).
